Assays:
[1] = tested on: STZ-induced diabetic CD-1 mice; test: Insulin tolerance test (ITT); format: in vivo; conditions: single intragastric dose 50 mg/kg, insulin 0.75 IU after 30 min
Procedure: The studies were carried out on compounds 4b, 4g, and 5g using both normoglycemic CD1 mice and a mouse model of noninsulin-dependent diabetes mellitus (NIDDM). An oral glucose tolerance test (OGTT) was conducted on the normoglycemic mice to evaluate the hypoglycemic activity of the compounds, while an insulin tolerance test (ITT) was performed on hyperglycemic CD1 mice to assess the compounds' capacity to enhance insulin sensitivity in streptozotocin-induced diabetic mice. Pioglitazone and GA were included as positive controls. […] Healthy six-week-old male CD-1 mice, weighing between 30 and 40 g, were maintained at a temperature of 25 ± 2 °C, under a 12-h light/dark cycle and 45-65% humidity throughout the experimental period. The mice were provided with a rodent pelleted diet (Harlan Laboratories, Indianapolis, USA) and had access to water ad libitum. Sixteen hours before the experiment, all mice were fasted but still had free access to water. All animal procedures were conducted in accordance with the Mexican Federal Regulations for Animal Experimentation and Care (SAGARPA, NOM-062-ZOO-1999, Mexico) and received approval from the Institutional Animal Care and Use Committee, following guidelines outlined in the US National Institutes of Health publication (No. 85-23, revised 1985). Streptozotocin (STZ) was dissolved in citrate buffer (pH 4.5), while nicotinamide was dissolved in a normal physiological saline solution. The noninsulin-dependent diabetes (NIDD) mouse model was induced in overnight-fasted mice through a single intraperitoneal injection of STZ (100 mg/kg). Nicotinamide was administered 15 min prior, at a dose of 20 mg/kg via intraperitoneal injection. […] Roche). […] Animals were categorized into five groups, each consisting of four mice (n = 4). The experimental groups received an oral suspension of compounds 4b, 4g, and 5g, prepared in a 10% Tween 20/water solution, at a dosage of 50 mg/kg body weight. A control group was treated with only the 10% Tween 20 solution. The final group was administered pioglitazone at a dose of 45 mg/kg, which is recognized as a reference drug for insulin sensitization. To evaluate glucose levels, blood samples were collected from the tails of the mice at 0, 30, 60, 90, and 120 min after the administration of the vehicle, test compound, or drug. Blood glucose concentration was measured using a commercial glucometer (Accu-Chek, Performa; Roche) and the enzymatic glucose dehydrogenase method. The percentage variation in glycemia was calculated by comparing the selected postadministration glycemia (G x ) with the initial value (G0) using the following formula: %[…]=[(Gx-G0)/G0]×100 where G0 represents the initial glycemia values and Gx indicates the glycemia values at +30, + 60, + 90, and +120 min, respectively. To evaluate the ability of GA derivatives to enhance insulin sensitivity in STZ-induced diabetic CD-1 mice, compounds 4b, 4g, and 5g were tested. Glycyrrhetinic acid (GA) and Pioglitazone served as positive controls. The GA derivatives and the positive controls were administered to the diabetic animals, followed by the administration of human rapid-acting insulin (0.75 IU) after 30 min. Subsequently, glucose levels were measured every 15 min.

hPTP1B1–400 [2] = target: T1, hPTP1B1–400 (Homo sapiens, UniProt P18031); test: PTP1B inhibition, pNPP hydrolysis, long form; format: biochemical; conditions: pNPP substrate, 15 min 37 °C, pH 6.8; ± S.D
T1 construct: h PTP1B 1–400 IC 50 (μM ± S.D); made in house
T1 sequence (P18031 1-400): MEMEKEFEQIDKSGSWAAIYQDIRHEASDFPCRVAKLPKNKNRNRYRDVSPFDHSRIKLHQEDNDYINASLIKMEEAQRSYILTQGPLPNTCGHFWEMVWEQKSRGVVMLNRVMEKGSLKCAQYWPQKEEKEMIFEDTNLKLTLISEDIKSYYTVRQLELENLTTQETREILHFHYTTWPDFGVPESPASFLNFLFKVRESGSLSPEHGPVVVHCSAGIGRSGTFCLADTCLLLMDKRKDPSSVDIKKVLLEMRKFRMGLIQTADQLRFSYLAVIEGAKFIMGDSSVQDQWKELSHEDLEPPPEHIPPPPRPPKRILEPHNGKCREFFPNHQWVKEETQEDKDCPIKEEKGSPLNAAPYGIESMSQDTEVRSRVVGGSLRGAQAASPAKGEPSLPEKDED
Procedure: The inhibitory activity of PTP1B was assessed using the long form of the PTP1B enzyme (hPTP1B1–400). This enzyme comprises a highly conserved N-terminal catalytic domain, known as the PTP domain (PTP1B1–300), in addition to an intrinsically disordered regulatory domain (PTP1B301–400).
The IC50 values obtained from these tests are detailed in Table .
Aliquots of 0–10 μL of the test compounds (triplicate) were taken and incubated for 15 min at 37 °C with 85 μL of Tris buffer solution (50 mM, pH 6.8) containing PTP1B enzyme and 5 μL of p-nitrophenyl phosphate substrate (pNPP, 10 mM). The absorbance of the hydrolysis product, p-nitrophenol (pNP), was measured at 405 nm using a 96-microplate absorbance reader (Accuris SmartReader 96). The inhibitory activity was determined according to eq . %enzyme=(A405b/A405c)×100 1 Where: % enzyme is the percentage of inhibition for PTP1B or TCPTP
The IC50 was calculated using regression analysis, eq : %inhibition=A100/1+(I/IC50)^s 2 Where: A100: Maximum inhibition

hPTP1B1–400 [3] = target: T1, hPTP1B1–400; test: Enzymatic kinetics studies (Lineweaver–Burk, model fitting); format: biochemical; conditions: for inhibition type: hPTP1B1–400, best fit model; for Ki: hPTP1B1–400, pNPP 0.1–0.5 mM; for Km / Vmax: hPTP1B1–400 with inhibitor
Procedure: Kinetic analyses were conducted using varying concentrations of substrate and inhibitor.
Five increasing concentrations of each inhibitor were tested, according to their previously determined IC50 values. The negative control was prepared by omitting the inhibitor in the presence of the enzyme and substrate. The Supporting Information includes detailed eqs (E1–E5) used to determine the kinetic parameters and mechanisms involved in PTP1B inhibition.
Equation 1 was used to obtain enzyme kinetic parameters by fitting data to the Michaelis-Menten model (Origin Pro
The equations defined for the following non-linear inhibition models were used to determine the mechanism of
PTP1B inhibition: competitive (E2), non-competitive (E3), uncompetitive (E4), and mixed (E5) (Origin Pro 2018 (64
(1+ ( ))(x05nh ) + (1+ ( )) (x05 nh)
Vmax is the maximum velocity, x is the substrate concentration, i is the inhibitor concentration, nh is the number of
Hill. Ki is the inhibition constant, and Km is the Michaelis constant.

Row | IC50 (hPTP1B1–400 [2]) [µM] | SMILES | also measured
1 |  | CC1(C)[C@@H](O)CC[C@]2(C)[C@H]3C(=O)C=C4[C@@H]5C[C@@](C)(C(=O)O)CC[C@]5(C)CC[C@@]4(C)[C@]3(C)CC[C@@H]12 [GA, Glycyrrhetinic acid, reference compound] | glycemia variation in ITT [1]: markedly decrease glycemia variation
2 | 2.13 ± 0.13 | CC1(C)c2[nH]c3ccc(OC(F)(F)F)cc3c2C[C@]2(C)[C@H]3C(=O)C=C4[C@@H]5C[C@@](C)(C(=O)O)CC[C@]5(C)CC[C@@]4(C)[C@]3(C)CC[C@@H]12 [compound 4a, (20β)-5′-(Trifluoromethoxy)-11-oxo-1′H-oleana-2,12-dieno[3,2-b]indol-29-oic Acid] | inhibition type (hPTP1B1–400 [3]): uncompetitive; Ki (hPTP1B1–400 [3]): 0.74 ± 0.1 µM; Km (hPTP1B1–400 [3]): 1840 ± 190 µM; Vmax (hPTP1B1–400 [3]): 1.06 ± 0.24 mM/min
3 | 5.6 ± 0.12 | CC1(C)c2[nH]c3ccc(SC(F)(F)F)cc3c2C[C@]2(C)[C@H]3C(=O)C=C4[C@@H]5C[C@@](C)(C(=O)O)CC[C@]5(C)CC[C@@]4(C)[C@]3(C)CC[C@@H]12 [compound 4c, (20β)-5′-(Trifluormethylthio)-11-oxo-1′H-oleana-2,12-dieno[3,2-b]indol-29-oic Acid] | 
4 | 22.4 ± 0.53 | CC1(C)c2[nH]c3ccc(C#N)cc3c2C[C@]2(C)[C@H]3C(=O)C=C4[C@@H]5C[C@@](C)(C(=O)O)CC[C@]5(C)CC[C@@]4(C)[C@]3(C)CC[C@@H]12 [compound 4d, (20β)-5′-Cyano-11-oxo-1′H-oleana-2,12-dieno[3,2-b]indol-29-oic Acid] | 
5 | 4.33 ± 0.58 | CC1(C)c2[nH]c3ccc(C(=O)O)cc3c2C[C@]2(C)[C@H]3C(=O)C=C4[C@@H]5C[C@@](C)(C(=O)O)CC[C@]5(C)CC[C@@]4(C)[C@]3(C)CC[C@@H]12 [compound 4e, (20β)-5′-Carboxy-11-oxo-1′H-oleana-2,12-dieno[3,2-b]indol-29-oic Acid] | inhibition type (hPTP1B1–400 [3]): uncompetitive; Ki (hPTP1B1–400 [3]): 4.05 ± 0.67 µM; Km (hPTP1B1–400 [3]): 990 ± 190 µM; Vmax (hPTP1B1–400 [3]): 1.64 ± 0.23 mM/min
6 | 9.3 ± 0.25 | CC1(C)c2[nH]c3ccc(C(N)=O)cc3c2C[C@]2(C)[C@H]3C(=O)C=C4[C@@H]5C[C@@](C)(C(=O)O)CC[C@]5(C)CC[C@@]4(C)[C@]3(C)CC[C@@H]12 [compound 4f, (20β)-5′-Carbamoyl-11-oxo-1′H-oleana-2,12-dieno[3,2-b]indol-29-oic Acid] | 
7 | 2.29 ± 0.15 | CC1(C)c2c(cnn2-c2ccc(OC(F)(F)F)cc2)C[C@]2(C)[C@H]3C(=O)C=C4[C@@H]5C[C@@](C)(C(=O)O)CC[C@]5(C)CC[C@@]4(C)[C@]3(C)CC[C@@H]12 [compound 5a, (20β)-11-Oxo-2′-[4-(trifluoromethoxy)phenyl]-2′H-oleana-2,12-dieno[3,2-c]pyrazol-29-oic acid] | 
8 | 6.19 ± 0.58 | CC1(C)c2c(cnn2-c2ccc(OC(F)F)cc2)C[C@]2(C)[C@H]3C(=O)C=C4[C@@H]5C[C@@](C)(C(=O)O)CC[C@]5(C)CC[C@@]4(C)[C@]3(C)CC[C@@H]12 [compound 5b, (20β)-2′-[4-(Difluoromethoxy)phenyl]-11-Oxo-2′H-oleana-2,12-dieno[3,2-c]pyrazol-29-oic Acid] | 
9 | 2.08 ± 0.04 | CC1(C)c2c(cnn2-c2ccc(SC(F)(F)F)cc2)C[C@]2(C)[C@H]3C(=O)C=C4[C@@H]5C[C@@](C)(C(=O)O)CC[C@]5(C)CC[C@@]4(C)[C@]3(C)CC[C@@H]12 [compound 5c, (20β)-11-Oxo-2′-[4-(trifluoromethylthio)phenyl]-2′H-oleana-2,12-dieno[3,2-c]pyrazol-29-oic Acid] | 
10 | 6.83 ± 0.17 | CC1(C)c2c(cnn2-c2ccc(C#N)cc2)C[C@]2(C)[C@H]3C(=O)C=C4[C@@H]5C[C@@](C)(C(=O)O)CC[C@]5(C)CC[C@@]4(C)[C@]3(C)CC[C@@H]12 [compound 5d, (20β)-2′-(4-Cyanophenyl)-11-oxo-2′H-oleana-2,12-dieno[3,2-c]pyrazol-29-oic Acid] | 
11 | 10.3 ± 0.51 | CC1(C)c2c(cnn2-c2ccc(C(N)=O)cc2)C[C@]2(C)[C@H]3C(=O)C=C4[C@@H]5C[C@@](C)(C(=O)O)CC[C@]5(C)CC[C@@]4(C)[C@]3(C)CC[C@@H]12 [compound 5f, (20β)-2′-(4-Carbamoylphenyl)-11-oxo-2′H-oleana-2,12-dieno[3,2-c]pyrazol-29-oic Acid] | 

Source: publication PMC12921516 (ACS Bio & Med Chem Au, 2025)
